Assay results published in PubChem BioAssay (NCI).
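Method: 48-hour compound exposure of cells in 96-well plates, five concentrations, linear interpolation of endpoints. GI50 marks 50% less growth. At the TGI there is no net growth.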

Experiments:
Experiment in all cases: NCI tumour cell line growth inhibition, 48 h
786-0 renal = system: 786-0 renal
A498 renal = system: A498 renal
A549 NSCLC = system: A549 NSCLC
ACHN renal = system: ACHN renal
CAKI-1 renal = system: CAKI-1 renal
CCRF-CEM leukemia = system: CCRF-CEM leukemia
COLO 205 colon = system: COLO 205 colon
DLD-1 colon = system: DLD-1 colon
DMS 114 small cell lung = system: DMS 114 small cell lung
DMS 273 small cell lung = system: DMS 273 small cell lung
EKVX NSCLC = system: EKVX NSCLC
HCC-2998 colon = system: HCC-2998 colon
HCT-116 colon = system: HCT-116 colon
HCT-15 colon = system: HCT-15 colon
HL-60(TB) leukemia = system: HL-60(TB) leukemia
HOP-62 NSCLC = system: HOP-62 NSCLC
HOP-92 NSCLC = system: HOP-92 NSCLC
HT29 colon = system: HT29 colon
IGROV1 ovarian = system: IGROV1 ovarian
K-562 leukemia = system: K-562 leukemia
KM12 colon = system: KM12 colon
KM20L2 colon = system: KM20L2 colon
LOX IMVI melanoma = system: LOX IMVI melanoma
LXFL 529 NSCLC = system: LXFL 529 NSCLC
M14 melanoma = system: M14 melanoma
M19-MEL melanoma = system: M19-MEL melanoma
MALME-3M melanoma = system: MALME-3M melanoma
MOLT-4 leukemia = system: MOLT-4 leukemia
NCI-H226 lung = system: NCI-H226 lung
NCI-H23 lung = system: NCI-H23 lung
NCI-H460 lung = system: NCI-H460 lung
NCI-H522 lung = system: NCI-H522 lung
OVCAR-3 ovarian = system: OVCAR-3 ovarian
OVCAR-4 ovarian = system: OVCAR-4 ovarian
OVCAR-5 ovarian = system: OVCAR-5 ovarian
OVCAR-8 ovarian = system: OVCAR-8 ovarian
RPMI-8226 leukemia = system: RPMI-8226 leukemia
RXF 393 renal = system: RXF 393 renal
SF-268 CNS = system: SF-268 CNS
SF-295 CNS = system: SF-295 CNS
SF-539 CNS = system: SF-539 CNS
SK-MEL-2 melanoma = system: SK-MEL-2 melanoma
SK-MEL-28 melanoma = system: SK-MEL-28 melanoma
SK-MEL-5 melanoma = system: SK-MEL-5 melanoma
SK-OV-3 ovarian = system: SK-OV-3 ovarian
SN12C renal = system: SN12C renal
SNB-19 CNS = system: SNB-19 CNS
SNB-75 CNS = system: SNB-75 CNS
SNB-78 CNS = system: SNB-78 CNS
SW-620 colon = system: SW-620 colon
TK-10 renal = system: TK-10 renal
U251 CNS = system: U251 CNS
UACC-257 melanoma = system: UACC-257 melanoma
UACC-62 melanoma = system: UACC-62 melanoma
UO-31 renal = system: UO-31 renal
XF 498 CNS = system: XF 498 CNS

Work on CCCCCCC[CH2][Sn]([Cl])([Cl])[CH2]CCCCCCC yielded a GI50 (786-0 renal) of 4.58 µM, a TGI (786-0 renal) of 17.1 µM and a GI50 (A498 renal) of 6.51 µM. The TGI (A498 renal) was 18.8 µM, the GI50 (A549 NSCLC) was 17.5 µM and the TGI (A549 NSCLC) was 34.3 µM. It also gave a GI50 (ACHN renal) of 7.17 µM, a TGI (ACHN renal) of 19.9 µM and a GI50 (CAKI-1 renal) of 11 µM. The TGI (CAKI-1 renal) was 23.2 µM, the GI50 (CCRF-CEM leukemia) was 3.27 µM and the TGI (CCRF-CEM leukemia) was 10.9 µM. It also gave a GI50 (COLO 205 colon) of 6 µM, a TGI (COLO 205 colon) of 17.3 µM and a GI50 (DLD-1 colon) of 5.37 µM. For the same compound, the TGI (DLD-1 colon) was 17.6 µM, the GI50 (DMS 114 small cell lung) was 3.93 µM and the TGI (DMS 114 small cell lung) was 13.9 µM. For the same compound, the GI50 (DMS 273 small cell lung) was 4.9 µM, the TGI (DMS 273 small cell lung) was 16.8 µM and the GI50 (EKVX NSCLC) was 10.4 µM. It also gave a TGI (EKVX NSCLC) of 22.2 µM, a GI50 (HCC-2998 colon) of 4.23 µM and a TGI (HCC-2998 colon) of 17 µM. It also gave a GI50 (HCT-116 colon) of 3.66 µM, a TGI (HCT-116 colon) of 15.3 µM and a GI50 (HCT-15 colon) of 5.69 µM. It also gave a TGI (HCT-15 colon) of 18.7 µM, a GI50 (HL-60(TB) leukemia) of 3.29 µM and a TGI (HL-60(TB) leukemia) of 11.2 µM. The GI50 (HOP-62 NSCLC) was 14.5 µM, the TGI (HOP-62 NSCLC) was 27.5 µM and the GI50 (HOP-92 NSCLC) was 5.27 µM. It also gave a TGI (HOP-92 NSCLC) of 18.4 µM, a GI50 (HT29 colon) of 6.83 µM and a TGI (HT29 colon) of 20 µM. It also gave a GI50 (IGROV1 ovarian) of 7.61 µM, a TGI (IGROV1 ovarian) of 20.3 µM and a GI50 (K-562 leukemia) of 3.66 µM. It also gave a TGI (K-562 leukemia) of 19.7 µM, a GI50 (KM12 colon) of 5.98 µM and a TGI (KM12 colon) of 18.8 µM. For the same compound, the GI50 (KM20L2 colon) was 11.1 µM, the TGI (KM20L2 colon) was 23.2 µM and the GI50 (LOX IMVI melanoma) was 3.56 µM. The TGI (LOX IMVI melanoma) was 11.5 µM, the GI50 (LXFL 529 NSCLC) was 3.05 µM and the TGI (LXFL 529 NSCLC) was 10.8 µM. It also gave a GI50 (M14 melanoma) of 6.94 µM, a TGI (M14 melanoma) of 19.5 µM and a GI50 (M19-MEL melanoma) of 9.31 µM. For the same compound, the TGI (M19-MEL melanoma) was 21.3 µM, the GI50 (MALME-3M melanoma) was 5.2 µM and the TGI (MALME-3M melanoma) was 18.1 µM. The GI50 (MOLT-4 leukemia) was 2.96 µM, the TGI (MOLT-4 leukemia) was 10.5 µM and the GI50 (NCI-H226 lung) was 10.1 µM. It also gave a TGI (NCI-H226 lung) of 22.4 µM, a GI50 (NCI-H23 lung) of 6.84 µM and a TGI (NCI-H23 lung) of 18.8 µM. It also gave a GI50 (NCI-H460 lung) of 13.2 µM, a TGI (NCI-H460 lung) of 26.8 µM and a GI50 (NCI-H522 lung) of 2.3 µM. The TGI (NCI-H522 lung) was 4.95 µM, the GI50 (OVCAR-3 ovarian) was 4.91 µM and the TGI (OVCAR-3 ovarian) was 17 µM. The GI50 (OVCAR-4 ovarian) was 10.5 µM, the TGI (OVCAR-4 ovarian) was 22.4 µM and the GI50 (OVCAR-5 ovarian) was 13.3 µM. It also gave a TGI (OVCAR-5 ovarian) of 26.2 µM, a GI50 (OVCAR-8 ovarian) of 4.46 µM and a TGI (OVCAR-8 ovarian) of 16.6 µM. The GI50 (RPMI-8226 leukemia) was 2.24 µM, the TGI (RPMI-8226 leukemia) was 12.6 µM and the GI50 (RXF 393 renal) was 2.7 µM. For the same compound, the TGI (RXF 393 renal) was 9.01 µM, the GI50 (SF-268 CNS) was 4.11 µM and the TGI (SF-268 CNS) was 15.4 µM. For the same compound, the GI50 (SF-295 CNS) was 12.5 µM, the TGI (SF-295 CNS) was 25 µM and the GI50 (SF-539 CNS) was 4.36 µM. It also gave a TGI (SF-539 CNS) of 16.6 µM, a GI50 (SK-MEL-2 melanoma) of 2.45 µM and a TGI (SK-MEL-2 melanoma) of 7.47 µM. It also gave a GI50 (SK-MEL-28 melanoma) of 3.82 µM, a TGI (SK-MEL-28 melanoma) of 12.9 µM and a GI50 (SK-MEL-5 melanoma) of 6.88 µM. For the same compound, the TGI (SK-MEL-5 melanoma) was 19.4 µM, the GI50 (SK-OV-3 ovarian) was 16.6 µM and the TGI (SK-OV-3 ovarian) was 30.2 µM. The GI50 (SN12C renal) was 7.41 µM, the TGI (SN12C renal) was 19.9 µM and the GI50 (SNB-19 CNS) was 7.15 µM. The TGI (SNB-19 CNS) was 20 µM, the GI50 (SNB-75 CNS) was 3.67 µM and the TGI (SNB-75 CNS) was 18.1 µM. It also gave a GI50 (SNB-78 CNS) of 6.25 µM, a TGI (SNB-78 CNS) of 21.4 µM and a GI50 (SW-620 colon) of 6.66 µM. For the same compound, the TGI (SW-620 colon) was 19.3 µM, the GI50 (TK-10 renal) was 16 µM and the TGI (TK-10 renal) was 29.4 µM. For the same compound, the GI50 (U251 CNS) was 2.21 µM, the TGI (U251 CNS) was 6.09 µM and the GI50 (UACC-257 melanoma) was 4.38 µM. The TGI (UACC-257 melanoma) was 15.9 µM, the GI50 (UACC-62 melanoma) was 2.05 µM and the TGI (UACC-62 melanoma) was 4.97 µM. The GI50 (UO-31 renal) was 10.6 µM, the TGI (UO-31 renal) was 22.4 µM and the GI50 (XF 498 CNS) was 4.9 µM. It also gave a TGI (XF 498 CNS) of 16.5 µM.
